Measurements reported in PubChem BioAssay (NCI).
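48-hour exposure; five concentrations; linearly interpolated endpoints. Abbreviation: GI50, concentration required for 50% inhibition of growth. At the TGI there is no net growth.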

What was measured:
Experiment in all cases: inhibition of tumour cell growth, NCI panel, 48 h
786-0 renal = system: 786-0 renal
A498 renal = system: A498 renal
A549 NSCLC = system: A549 NSCLC
ACHN renal = system: ACHN renal
BT-549 breast = system: BT-549 breast
CAKI-1 renal = system: CAKI-1 renal
CCRF-CEM leukemia = system: CCRF-CEM leukemia
COLO 205 colon = system: COLO 205 colon
DU-145 prostate = system: DU-145 prostate
EKVX NSCLC = system: EKVX NSCLC
HCC-2998 colon = system: HCC-2998 colon
HCT-116 colon = system: HCT-116 colon
HCT-15 colon = system: HCT-15 colon
HL-60(TB) leukemia = system: HL-60(TB) leukemia
HOP-62 NSCLC = system: HOP-62 NSCLC
HOP-92 NSCLC = system: HOP-92 NSCLC
HS 578T breast = system: HS 578T breast
HT29 colon = system: HT29 colon
IGROV1 ovarian = system: IGROV1 ovarian
K-562 leukemia = system: K-562 leukemia
KM12 colon = system: KM12 colon
LOX IMVI melanoma = system: LOX IMVI melanoma
M14 melanoma = system: M14 melanoma
MALME-3M melanoma = system: MALME-3M melanoma
MCF7 breast = system: MCF7 breast
MDA-MB-231 breast = system: MDA-MB-231 breast
MDA-MB-435 = system: MDA-MB-435
MOLT-4 leukemia = system: MOLT-4 leukemia
NCI-H226 lung = system: NCI-H226 lung
NCI-H23 lung = system: NCI-H23 lung
NCI-H460 lung = system: NCI-H460 lung
NCI-H522 lung = system: NCI-H522 lung
NCI/ADR-RES ovarian = system: NCI/ADR-RES ovarian
OVCAR-3 ovarian = system: OVCAR-3 ovarian
OVCAR-4 ovarian = system: OVCAR-4 ovarian
OVCAR-5 ovarian = system: OVCAR-5 ovarian
OVCAR-8 ovarian = system: OVCAR-8 ovarian
PC-3 prostate = system: PC-3 prostate
RPMI-8226 leukemia = system: RPMI-8226 leukemia
RXF 393 renal = system: RXF 393 renal
SF-268 CNS = system: SF-268 CNS
SF-295 CNS = system: SF-295 CNS
SF-539 CNS = system: SF-539 CNS
SK-MEL-2 melanoma = system: SK-MEL-2 melanoma
SK-MEL-28 melanoma = system: SK-MEL-28 melanoma
SK-MEL-5 melanoma = system: SK-MEL-5 melanoma
SK-OV-3 ovarian = system: SK-OV-3 ovarian
SN12C renal = system: SN12C renal
SNB-19 CNS = system: SNB-19 CNS
SNB-75 CNS = system: SNB-75 CNS
SR leukemia = system: SR leukemia
SW-620 colon = system: SW-620 colon
T-47D breast = system: T-47D breast
TK-10 renal = system: TK-10 renal
U251 CNS = system: U251 CNS
UACC-257 melanoma = system: UACC-257 melanoma
UACC-62 melanoma = system: UACC-62 melanoma
UO-31 renal = system: UO-31 renal

Nc1nc(-c2cccc([N+](=O)[O-])c2)c(N=Nc2ccc([N+](=O)[O-])cc2Cl)s1
GI50 (786-0 renal): 351 nM | TGI (786-0 renal): 7210 nM | GI50 (A498 renal): 270 nM | TGI (A498 renal): 737 nM | GI50 (A549 NSCLC): 354 nM | TGI (A549 NSCLC): > 34900 nM | GI50 (ACHN renal): 287 nM | TGI (ACHN renal): 11300 nM | GI50 (BT-549 breast): 206 nM | TGI (BT-549 breast): 842 nM | GI50 (CAKI-1 renal): 204 nM | TGI (CAKI-1 renal): 1700 nM | GI50 (CCRF-CEM leukemia): 310 nM | TGI (CCRF-CEM leukemia): 9120 nM | GI50 (COLO 205 colon): 342 nM | TGI (COLO 205 colon): 1290 nM | GI50 (DU-145 prostate): 383 nM | TGI (DU-145 prostate): > 49900 nM | GI50 (EKVX NSCLC): 260 nM | TGI (EKVX NSCLC): 4200 nM | GI50 (HCC-2998 colon): 309 nM | TGI (HCC-2998 colon): 7420 nM | GI50 (HCT-116 colon): 231 nM | TGI (HCT-116 colon): 1230 nM | GI50 (HCT-15 colon): 193 nM | TGI (HCT-15 colon): 2000 nM | GI50 (HL-60(TB) leukemia): 254 nM | TGI (HL-60(TB) leukemia): 1130 nM | GI50 (HOP-62 NSCLC): 312 nM | TGI (HOP-62 NSCLC): 1700 nM | GI50 (HOP-92 NSCLC): 48.6 nM | TGI (HOP-92 NSCLC): 418 nM | GI50 (HS 578T breast): 239 nM | TGI (HS 578T breast): 1210 nM | GI50 (HT29 colon): 342 nM | TGI (HT29 colon): 4380 nM | GI50 (IGROV1 ovarian): 446 nM | TGI (IGROV1 ovarian): 18500 nM | GI50 (K-562 leukemia): 151 nM | TGI (K-562 leukemia): 4990 nM | GI50 (KM12 colon): 272 nM | TGI (KM12 colon): 3730 nM | GI50 (LOX IMVI melanoma): 317 nM | TGI (LOX IMVI melanoma): 4610 nM | GI50 (M14 melanoma): 377 nM | TGI (M14 melanoma): 6750 nM | GI50 (MALME-3M melanoma): 172 nM | TGI (MALME-3M melanoma): 739 nM | GI50 (MCF7 breast): 192 nM | TGI (MCF7 breast): 1360 nM | GI50 (MDA-MB-231 breast): 289 nM | TGI (MDA-MB-231 breast): 1780 nM | GI50 (MDA-MB-435): 291 nM | TGI (MDA-MB-435): 3650 nM | GI50 (MOLT-4 leukemia): 266 nM | TGI (MOLT-4 leukemia): 2580 nM | GI50 (NCI-H226 lung): 196 nM | TGI (NCI-H226 lung): 816 nM | GI50 (NCI-H23 lung): 168 nM | TGI (NCI-H23 lung): 786 nM | GI50 (NCI-H460 lung): 243 nM | TGI (NCI-H460 lung): 1260 nM | GI50 (NCI-H522 lung): 119 nM | TGI (NCI-H522 lung): 2490 nM | GI50 (NCI/ADR-RES ovarian): 254 nM | TGI (NCI/ADR-RES ovarian): 2050 nM | GI50 (OVCAR-3 ovarian): 245 nM | TGI (OVCAR-3 ovarian): 12900 nM | GI50 (OVCAR-4 ovarian): 274 nM | TGI (OVCAR-4 ovarian): > 67400 nM | GI50 (OVCAR-5 ovarian): 535 nM | TGI (OVCAR-5 ovarian): 36400 nM | GI50 (OVCAR-8 ovarian): 308 nM | TGI (OVCAR-8 ovarian): 4460 nM | GI50 (PC-3 prostate): 244 nM | TGI (PC-3 prostate): 7390 nM | GI50 (RPMI-8226 leukemia): 99.6 nM | GI50 (RXF 393 renal): 251 nM | TGI (RXF 393 renal): 704 nM | GI50 (SF-268 CNS): 310 nM | TGI (SF-268 CNS): > 41400 nM | GI50 (SF-295 CNS): 261 nM | TGI (SF-295 CNS): 1110 nM | GI50 (SF-539 CNS): 344 nM | TGI (SF-539 CNS): 10400 nM | GI50 (SK-MEL-2 melanoma): 86 nM | TGI (SK-MEL-2 melanoma): 401 nM | GI50 (SK-MEL-28 melanoma): 336 nM | TGI (SK-MEL-28 melanoma): 8140 nM | GI50 (SK-MEL-5 melanoma): 87.7 nM | TGI (SK-MEL-5 melanoma): 286 nM | GI50 (SK-OV-3 ovarian): 160 nM | TGI (SK-OV-3 ovarian): 1000 nM | GI50 (SN12C renal): 261 nM | TGI (SN12C renal): 4570 nM | GI50 (SNB-19 CNS): 311 nM | TGI (SNB-19 CNS): 20800 nM | GI50 (SNB-75 CNS): 171 nM | TGI (SNB-75 CNS): 2280 nM | GI50 (SR leukemia): 293 nM | TGI (SR leukemia): 2940 nM | GI50 (SW-620 colon): 325 nM | TGI (SW-620 colon): 5460 nM | GI50 (T-47D breast): 67.1 nM | TGI (T-47D breast): 771 nM | GI50 (TK-10 renal): 573 nM | TGI (TK-10 renal): 8870 nM | GI50 (U251 CNS): 213 nM | TGI (U251 CNS): 1320 nM | GI50 (UACC-257 melanoma): 133 nM | TGI (UACC-257 melanoma): 1370 nM | GI50 (UACC-62 melanoma): 144 nM | TGI (UACC-62 melanoma): 1620 nM | GI50 (UO-31 renal): 236 nM | TGI (UO-31 renal): 1380 nM
